Source: patent US6432880B1, “Substituted 2-phenylpyridines as herbicides” (BASF Aktiengesellschaft, priority 1999, dated 2002)

## CS(=O)(=O)Oc1cnc(-c2cc(O)c(Cl)cc2F)c(Cl)c1 [Ia.362, 2-(4-chloro-2-fluoro-5-hydroxyphenyl)-3-chloro-5-(methylsulfonyl-oxy) pyridine]
  melting point: 132 to 133 °C

## COc1cc(-c2ncc(OS(C)(=O)=O)cc2Cl)c(F)cc1Cl [Ia.363, 2-(4-chloro-2-fluoro-5-methoxyphenyl)-3-chloro-5-(methylsulfonyl-oxy)pyridine]
  melting point: 118 to 120 °C
